{"source": "patent US8598383B2", "about": "“Pharmaceutical composition for treating or preventing degenerative and inflammatory diseases” (Neurotech Pharmaceuticals Co., Ltd., priority 2006, dated 2013)", "key": {"TNF-α and IL-1β mRNA": {"tested_on": "TNF-α and IL-1β mRNA", "assay": "Cytokine mRNA expression in G93A mouse (RT-PCR)", "assay_type": "in vivo", "conditions": "5 mg/kg/day in chow, 16 week-old, lumbar segments", "protocol": "FIG. 30 is results showing the levels of mRNA of inflammatory cytokines (TNF-α and IL-1β), markers of inflammation, in G93A mouse. RT-PCR (Reverse Transcription-Polymerase Chain Reaction) was used.\nLumbar segments of 16 week-old G93A mice fed with general chow only, and 16 week-old G93A mice fed with chow containing 5 mg/kg/day of compound 2 were extracted and their RNA were separated. The mRNA expression degrees of TNF-α and IL-1β, inflammatory cytokines, were evaluated through RT-PCT."}, "NSAID-induced gastritis": {"tested_on": "NSAID-induced gastritis", "assay": "Gastritis caused by NSAID (indomethacine)", "assay_type": "in vivo, rat", "conditions": "indomethacine 6 hour and 12 hour models; given 1 hour before NSAID", "protocol": "FIG. 10 is results showing protecting effect of compound 2 on gastritis induced by NSAID. 250 g of rat was fasted for 24 hours, and indomethacin was orally administered to cause gastrointestinal bleeding (A and C). Compound 2 was administered 1 hour before administration of NSAID (B and D), and stomach was taken out 6 hours (A and B) or 12 hours (C and D) after gastrointestinal bleeding.\nEffect of the 2-hydroxybenzoic acid derivative on NSAID-induced gastritis was evaluated."}, "gastric mucous membrane": {"tested_on": "gastric mucous membrane", "assay": "Safety test about induction of gastric mucous membrane damage", "assay_type": "in vivo", "conditions": "oral, up to 1,000 mg/kg, aspirin as control", "protocol": "Test samples were orally administered at different doses to evaluate the degree of the gastric mucous membrane damage. Aspirin was used as control.\nFIG. 2 is results showing degrees of the gastric mucous membrane damage. Test samples were orally administered at indicated doses. […] Indomethacine, ibuprofen and celecoxib were used as control.\nConventional NSAIDs have side effects causing damages to the gastric mucous membrane. Therefore, it was evaluated whether compound 2 having anti-inflammatory effect causes the gastric damage or not. 30, 100 or 300 mg/kg of aspirin was orally administered as control."}}}
{"compound": "O=C(O)c1cc(NCCc2ccc(C(F)(F)F)cc2)ccc1O", "note": "[compound 2, 2-hydroxy-5-[2-(4-trifluoromethyl-phenyl)-ethylamino]-benzoic acid]", "values": [{"measurement": "mRNA expression of TNF-α and IL-1β", "setting": "TNF-α and IL-1β mRNA", "result": "effectively reduced inflammatory cytokines"}, {"measurement": "protecting effect on stomach", "setting": "NSAID-induced gastritis", "result": "excellent protecting effect on stomach"}, {"measurement": "gastric mucous membrane damage", "setting": "gastric mucous membrane", "result": "did not cause damage to the gastric mucous membrane"}, {"measurement": "gastric mucous membrane damage", "setting": "gastric mucous membrane; listed as Compound 2", "result": "did not cause the gastric side effect"}]}
